Laboratory results from ChEMBL document CHEMBL4507272 (2021).

Columns and labels:
[1] = molecular target: Histamine H3 receptor (Homo sapiens, UniProt Q9Y5N1); experiment: GPCRScan assay: inhibition of H3; set-up: radioligand conc. used [nm] 0.5 – 1.0, parental cells HEK Flp-In
[2] = tested on: Tyrosine-protein kinase ABL1 (Homo sapiens), P00519 [F317L]; conditions: Compound concentration 1000.0 nM
[3] = tested on: Tyrosine-protein kinase ABL1 (Homo sapiens), P00519 [M351T]; conditions: Compound concentration 1000.0 nM
[4] = tested on: Tyrosine-protein kinase ABL1 (Homo sapiens), P00519 [Q252H]; conditions: Compound concentration 1000.0 nM
[5] = molecular target: Atypical kinase COQ8A, mitochondrial (Homo sapiens) (UniProt Q8NI60); conditions: Compound concentration 1000.0 nM
[6] = molecular target: Aurora kinase C (Homo sapiens) (UniProt Q9UQB9); conditions: Compound concentration 1000.0 nM
[7] = molecular target: Calcium/calmodulin-dependent protein kinase type II subunit alpha (Homo sapiens) (UniProt Q9UQM7); conditions: Compound concentration 1000.0 nM
[8] = molecular target: Calcium/calmodulin-dependent protein kinase kinase 2 (Homo sapiens) (UniProt Q96RR4); conditions: Compound concentration 1000.0 nM
[9] = molecular target: Cyclin-dependent kinase 3 (Homo sapiens) (UniProt Q00526); conditions: Compound concentration 1000.0 nM
[10] = molecular target: Casein kinase I isoform gamma-1 (Homo sapiens) (UniProt Q9HCP0); conditions: Compound concentration 1000.0 nM
[11] = molecular target: Casein kinase I isoform gamma-2 (Homo sapiens) (UniProt P78368); conditions: Compound concentration 1000.0 nM
[12] = molecular target: Dual specificity tyrosine-phosphorylation-regulated kinase 2 (Homo sapiens) (UniProt Q92630); conditions: Compound concentration 1000.0 nM
[13] = tested on: Epidermal growth factor receptor (Homo sapiens), P00533 [G719C]; conditions: Compound concentration 1000.0 nM
[14] = molecular target: Ephrin type-A receptor 7 (Homo sapiens) (UniProt Q15375); conditions: Compound concentration 1000.0 nM
[15] = tested on: Receptor-type tyrosine-protein kinase FLT3 (Homo sapiens), P36888 [N841I]; conditions: Compound concentration 1000.0 nM
[16] = molecular target: Cyclin-G-associated kinase (Homo sapiens) (UniProt O14976); conditions: Compound concentration 1000.0 nM
[17] = molecular target: Beta-adrenergic receptor kinase 1 (Homo sapiens) (UniProt P25098); conditions: Compound concentration 1000.0 nM
Sequence of Beta-adrenergic receptor kinase 1 (Homo sapiens) (P25098 whole entry): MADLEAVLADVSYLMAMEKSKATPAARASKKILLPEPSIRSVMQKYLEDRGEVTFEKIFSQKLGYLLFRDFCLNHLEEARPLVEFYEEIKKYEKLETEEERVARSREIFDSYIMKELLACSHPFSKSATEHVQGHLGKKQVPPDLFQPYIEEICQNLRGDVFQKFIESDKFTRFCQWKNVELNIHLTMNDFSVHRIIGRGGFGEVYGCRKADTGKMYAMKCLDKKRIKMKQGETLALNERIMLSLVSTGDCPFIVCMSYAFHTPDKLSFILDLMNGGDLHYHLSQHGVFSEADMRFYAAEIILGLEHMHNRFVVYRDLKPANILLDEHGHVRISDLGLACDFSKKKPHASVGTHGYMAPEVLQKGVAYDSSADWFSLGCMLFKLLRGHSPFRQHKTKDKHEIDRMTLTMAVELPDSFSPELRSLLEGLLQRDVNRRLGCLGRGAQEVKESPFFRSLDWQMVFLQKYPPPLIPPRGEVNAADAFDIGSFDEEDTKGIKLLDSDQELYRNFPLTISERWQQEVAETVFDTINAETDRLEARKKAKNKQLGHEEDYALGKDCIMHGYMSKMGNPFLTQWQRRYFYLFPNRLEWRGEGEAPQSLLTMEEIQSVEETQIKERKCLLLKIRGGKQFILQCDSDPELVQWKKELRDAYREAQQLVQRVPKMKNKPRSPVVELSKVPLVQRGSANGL

[18] = molecular target: G protein-coupled receptor kinase 4 (Homo sapiens) (UniProt P32298); conditions: Compound concentration 1000.0 nM
[19] = molecular target: Rhodopsin kinase GRK7 (Homo sapiens) (UniProt Q8WTQ7); conditions: Compound concentration 1000.0 nM
[20] = molecular target: Homeodomain-interacting protein kinase 2 (Homo sapiens) (UniProt Q9H2X6); conditions: Compound concentration 1000.0 nM
[21] = molecular target: Insulin receptor (Homo sapiens) (UniProt P06213); conditions: Compound concentration 1000.0 nM
[22] = molecular target: Tyrosine-protein kinase JAK2 (Homo sapiens) (UniProt O60674); conditions: Compound concentration 1000.0 nM
Sequence of Tyrosine-protein kinase JAK2 (Homo sapiens) (O60674 whole entry): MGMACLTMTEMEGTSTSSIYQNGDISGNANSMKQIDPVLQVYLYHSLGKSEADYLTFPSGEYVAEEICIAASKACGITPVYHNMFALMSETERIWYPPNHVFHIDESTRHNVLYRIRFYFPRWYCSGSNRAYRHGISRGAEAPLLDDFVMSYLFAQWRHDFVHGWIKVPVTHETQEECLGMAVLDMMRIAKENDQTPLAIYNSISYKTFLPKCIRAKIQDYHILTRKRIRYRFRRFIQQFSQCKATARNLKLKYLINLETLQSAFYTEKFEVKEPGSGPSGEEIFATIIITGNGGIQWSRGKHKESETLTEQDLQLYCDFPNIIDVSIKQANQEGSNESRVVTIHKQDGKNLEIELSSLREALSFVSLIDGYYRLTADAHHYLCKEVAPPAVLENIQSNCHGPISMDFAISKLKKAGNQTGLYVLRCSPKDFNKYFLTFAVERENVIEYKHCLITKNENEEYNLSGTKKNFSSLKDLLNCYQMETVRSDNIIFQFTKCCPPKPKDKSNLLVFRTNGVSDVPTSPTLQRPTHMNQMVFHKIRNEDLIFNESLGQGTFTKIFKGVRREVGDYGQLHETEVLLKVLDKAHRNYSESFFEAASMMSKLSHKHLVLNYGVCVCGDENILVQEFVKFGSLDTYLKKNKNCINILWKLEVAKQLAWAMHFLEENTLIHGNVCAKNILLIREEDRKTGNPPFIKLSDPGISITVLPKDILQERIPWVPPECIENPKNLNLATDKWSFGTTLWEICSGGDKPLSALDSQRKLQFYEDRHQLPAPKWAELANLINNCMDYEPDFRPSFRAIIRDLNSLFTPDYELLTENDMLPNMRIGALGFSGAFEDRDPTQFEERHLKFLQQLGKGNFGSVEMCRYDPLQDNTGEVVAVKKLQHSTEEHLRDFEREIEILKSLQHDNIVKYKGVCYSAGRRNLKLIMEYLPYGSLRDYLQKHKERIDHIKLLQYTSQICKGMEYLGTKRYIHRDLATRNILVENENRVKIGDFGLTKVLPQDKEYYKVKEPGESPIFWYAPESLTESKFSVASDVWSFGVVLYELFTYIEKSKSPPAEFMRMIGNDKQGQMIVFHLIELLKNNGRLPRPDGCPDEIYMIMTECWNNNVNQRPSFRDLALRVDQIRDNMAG

[23] = tested on: Mast/stem cell growth factor receptor Kit (Homo sapiens), P10721 [D816V]; conditions: Compound concentration 1000.0 nM
Sequence of Mast/stem cell growth factor receptor Kit (Homo sapiens), P10721 [D816V] (P10721 whole entry D816V): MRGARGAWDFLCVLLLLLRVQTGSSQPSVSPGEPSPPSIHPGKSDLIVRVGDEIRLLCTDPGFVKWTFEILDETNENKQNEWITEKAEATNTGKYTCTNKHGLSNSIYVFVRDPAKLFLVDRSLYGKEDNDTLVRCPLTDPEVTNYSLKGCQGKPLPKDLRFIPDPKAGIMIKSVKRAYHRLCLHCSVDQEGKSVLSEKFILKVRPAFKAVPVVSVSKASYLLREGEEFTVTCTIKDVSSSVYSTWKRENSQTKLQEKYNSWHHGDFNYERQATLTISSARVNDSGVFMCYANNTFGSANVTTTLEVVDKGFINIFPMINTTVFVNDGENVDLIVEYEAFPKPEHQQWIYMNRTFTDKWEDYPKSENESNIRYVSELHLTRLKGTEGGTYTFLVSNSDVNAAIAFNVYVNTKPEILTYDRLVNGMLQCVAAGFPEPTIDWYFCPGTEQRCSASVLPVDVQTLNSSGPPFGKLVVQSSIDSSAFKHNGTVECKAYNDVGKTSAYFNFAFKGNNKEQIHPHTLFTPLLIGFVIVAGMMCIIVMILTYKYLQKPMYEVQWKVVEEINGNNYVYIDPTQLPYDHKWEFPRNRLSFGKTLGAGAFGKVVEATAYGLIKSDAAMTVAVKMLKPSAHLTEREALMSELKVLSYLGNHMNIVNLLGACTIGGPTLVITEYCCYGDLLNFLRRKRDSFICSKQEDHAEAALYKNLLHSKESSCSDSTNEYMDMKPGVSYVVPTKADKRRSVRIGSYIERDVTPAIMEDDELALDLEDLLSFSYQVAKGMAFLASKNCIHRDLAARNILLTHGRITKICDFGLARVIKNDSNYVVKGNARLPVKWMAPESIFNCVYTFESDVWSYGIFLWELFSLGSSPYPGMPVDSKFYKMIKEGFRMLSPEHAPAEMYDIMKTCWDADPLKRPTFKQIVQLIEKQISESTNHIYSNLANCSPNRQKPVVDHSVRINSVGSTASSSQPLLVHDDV

[24] = molecular target: Tyrosine-protein kinase Lck (Homo sapiens) (UniProt P06239); conditions: Compound concentration 1000.0 nM
[25] = molecular target: Serine/threonine-protein kinase 10 (Homo sapiens) (UniProt O94804); conditions: Compound concentration 1000.0 nM
[26] = molecular target: Mitogen-activated protein kinase kinase kinase 4 (Homo sapiens) (UniProt Q9Y6R4); conditions: Compound concentration 1000.0 nM
[27] = molecular target: Dual specificity mitogen-activated protein kinase kinase 5 (Homo sapiens) (UniProt Q13163); conditions: Compound concentration 1000.0 nM
[28] = molecular target: Serine/threonine-protein kinase Nek4 (Homo sapiens) (UniProt P51957); conditions: Compound concentration 1000.0 nM
[29] = molecular target: Serine/threonine-protein kinase PAK 3 (Homo sapiens) (UniProt O75914); conditions: Compound concentration 1000.0 nM
[30] = molecular target: Cyclin-dependent kinase 17 (Homo sapiens) (UniProt Q00537); conditions: Compound concentration 1000.0 nM
[31] = molecular target: Phosphatidylinositol 4,5-bisphosphate 3-kinase catalytic subunit delta isoform (Homo sapiens) (UniProt O00329); conditions: Compound concentration 1000.0 nM
[32] = molecular target: Serine/threonine-protein kinase PLK3 (Homo sapiens) (UniProt Q9H4B4); conditions: Compound concentration 1000.0 nM
Sequence of Serine/threonine-protein kinase PLK3 (Homo sapiens) (Q9H4B4 whole entry, looked up): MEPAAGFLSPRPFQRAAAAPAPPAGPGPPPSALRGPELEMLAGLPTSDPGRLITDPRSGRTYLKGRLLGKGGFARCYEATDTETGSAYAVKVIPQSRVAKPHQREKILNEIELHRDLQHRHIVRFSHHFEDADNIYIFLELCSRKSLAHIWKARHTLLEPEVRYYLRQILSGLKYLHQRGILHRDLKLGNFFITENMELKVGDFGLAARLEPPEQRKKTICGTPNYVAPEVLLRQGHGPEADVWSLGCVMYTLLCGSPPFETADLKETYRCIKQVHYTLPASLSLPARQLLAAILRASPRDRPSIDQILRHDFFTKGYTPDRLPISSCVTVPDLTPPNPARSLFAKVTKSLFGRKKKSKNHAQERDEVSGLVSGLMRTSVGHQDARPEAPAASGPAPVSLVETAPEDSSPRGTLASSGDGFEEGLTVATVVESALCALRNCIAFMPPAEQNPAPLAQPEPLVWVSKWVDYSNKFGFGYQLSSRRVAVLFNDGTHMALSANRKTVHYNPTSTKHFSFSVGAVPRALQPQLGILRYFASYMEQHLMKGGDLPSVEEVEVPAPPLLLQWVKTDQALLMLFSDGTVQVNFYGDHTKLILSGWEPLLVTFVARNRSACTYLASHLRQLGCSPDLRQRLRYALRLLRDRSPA

[33] = molecular target: Serine/threonine-protein kinase PRP4 homolog (Homo sapiens) (UniProt Q13523); conditions: Compound concentration 1000.0 nM
[34] = molecular target: Serine/threonine-protein kinase RIO3 (Homo sapiens) (UniProt O14730); conditions: Compound concentration 1000.0 nM
[35] = molecular target: Receptor-interacting serine/threonine-protein kinase 1 (Homo sapiens) (UniProt Q13546); conditions: Compound concentration 1000.0 nM
[36] = molecular target: Serine/threonine-protein kinase SBK1 (Homo sapiens) (UniProt Q52WX2); conditions: Compound concentration 1000.0 nM
[37] = molecular target: Tyrosine-protein kinase Srms (Homo sapiens) (UniProt Q9H3Y6); conditions: Compound concentration 1000.0 nM
[38] = molecular target: SRSF protein kinase 1 (Homo sapiens) (UniProt Q96SB4); conditions: Compound concentration 1000.0 nM
[39] = molecular target: TGF-beta receptor type-2 (Homo sapiens) (UniProt P37173); conditions: Compound concentration 1000.0 nM
[40] = molecular target: Serine/threonine-protein kinase ULK1 (Homo sapiens) (UniProt O75385); conditions: Compound concentration 1000.0 nM
[41] = molecular target: 5-hydroxytryptamine receptor 1A (Homo sapiens) (UniProt P08908); conditions: Compound concentration 10.0 uM
[42] = molecular target: 5-hydroxytryptamine receptor 2B (Homo sapiens) (UniProt P41595); conditions: Compound concentration 10.0 uM
Sequence of 5-hydroxytryptamine receptor 2B (Homo sapiens) (P41595 whole entry): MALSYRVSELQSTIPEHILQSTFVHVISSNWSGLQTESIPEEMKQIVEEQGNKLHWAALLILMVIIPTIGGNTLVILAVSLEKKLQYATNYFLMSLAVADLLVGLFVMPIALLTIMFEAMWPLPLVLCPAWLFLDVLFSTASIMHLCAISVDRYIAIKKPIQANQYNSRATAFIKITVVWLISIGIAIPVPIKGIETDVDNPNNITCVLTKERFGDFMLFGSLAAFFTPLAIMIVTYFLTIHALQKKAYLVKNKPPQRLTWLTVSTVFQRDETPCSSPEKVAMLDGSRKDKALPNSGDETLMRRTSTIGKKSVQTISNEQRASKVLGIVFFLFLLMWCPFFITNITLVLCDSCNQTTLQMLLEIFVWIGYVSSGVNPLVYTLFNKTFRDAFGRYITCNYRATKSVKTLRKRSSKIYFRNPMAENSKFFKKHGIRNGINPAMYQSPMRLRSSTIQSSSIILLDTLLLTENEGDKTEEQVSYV

[43] = molecular target: 5-hydroxytryptamine receptor 3A (Homo sapiens) (UniProt P46098); conditions: Compound concentration 10.0 uM
[44] = molecular target: Alpha-2C adrenergic receptor (Homo sapiens) (UniProt P18825); conditions: Compound concentration 10.0 uM
Sequence of Alpha-2C adrenergic receptor (Homo sapiens) (P18825 whole entry): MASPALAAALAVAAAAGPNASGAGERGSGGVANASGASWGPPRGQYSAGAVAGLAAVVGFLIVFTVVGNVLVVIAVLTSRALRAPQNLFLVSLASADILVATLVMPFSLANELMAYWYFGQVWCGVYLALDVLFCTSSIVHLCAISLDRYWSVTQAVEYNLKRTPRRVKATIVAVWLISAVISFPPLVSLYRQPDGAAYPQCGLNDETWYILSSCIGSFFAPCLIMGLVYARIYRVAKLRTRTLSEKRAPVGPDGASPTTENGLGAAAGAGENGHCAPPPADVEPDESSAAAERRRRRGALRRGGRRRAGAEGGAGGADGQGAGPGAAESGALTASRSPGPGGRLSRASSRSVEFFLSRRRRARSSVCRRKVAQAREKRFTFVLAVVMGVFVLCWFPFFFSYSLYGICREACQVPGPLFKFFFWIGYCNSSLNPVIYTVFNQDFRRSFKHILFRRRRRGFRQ

[45] = molecular target: Muscarinic acetylcholine receptor M1 (Homo sapiens) (UniProt P11229); conditions: Compound concentration 10.0 uM

Sequence of Histamine H3 receptor (Q9Y5N1 whole entry): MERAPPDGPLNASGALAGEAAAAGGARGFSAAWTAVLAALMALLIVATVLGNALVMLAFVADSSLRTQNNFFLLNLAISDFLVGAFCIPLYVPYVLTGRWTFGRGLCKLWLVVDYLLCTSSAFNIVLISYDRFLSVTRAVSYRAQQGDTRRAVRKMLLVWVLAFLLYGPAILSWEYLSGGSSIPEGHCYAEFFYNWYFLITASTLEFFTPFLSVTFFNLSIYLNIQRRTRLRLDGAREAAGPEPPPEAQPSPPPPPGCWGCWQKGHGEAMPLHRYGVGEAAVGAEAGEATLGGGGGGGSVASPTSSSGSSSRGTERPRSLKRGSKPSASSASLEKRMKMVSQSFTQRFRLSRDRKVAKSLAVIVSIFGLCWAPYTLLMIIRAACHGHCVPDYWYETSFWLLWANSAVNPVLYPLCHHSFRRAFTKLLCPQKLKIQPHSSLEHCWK

CC(=O)C1=C(C)N(c2cccc(C(F)(F)F)c2)C(=O)N[C@@H]1c1ccc(C#N)nc1 [BAY-678] was tested, and the Ki ([1]; read-out: Ki) was 3070 nM, the Ki ([1]; read-out: pKi (converted)) was 2820 nM and the residual activity [2] was 97.1%. The residual activity [3] was 100%, the residual activity [4] was 94.3% and the residual activity [5] was 100%. It also gave a residual activity [6] of 100%, a residual activity [7] of 92.5% and a residual activity [8] of 100%. For the same compound, the residual activity [9] was 100%, the residual activity [10] was 100% and the residual activity [11] was 94.6%. For the same compound, the residual activity [12] was 100%, the residual activity [13] was 100% and the residual activity [14] was 100%. For the same compound, the residual activity [15] was 73.8%, the residual activity [16] was 97.2% and the residual activity [17] was 89%. For the same compound, the residual activity [18] was 100%, the residual activity [19] was 100% and the residual activity [20] was 94.3%. For the same compound, the residual activity [21] was 89.3%, the residual activity [22] was 87.1% and the residual activity [23] was 100%. It also gave a residual activity [24] of 100%, a residual activity [25] of 84.5% and a residual activity [26] of 100%. It also gave a residual activity [27] of 100%, a residual activity [28] of 93.9% and a residual activity [29] of 86.3%. For the same compound, the residual activity [30] was 100%, the residual activity [31] was 89.8% and the residual activity [32] was 84.2%. It also gave a residual activity [33] of 100%, a residual activity [34] of 100% and a residual activity [35] of 85.8%. It also gave a residual activity [36] of 100%, a residual activity [37] of 97.9% and a residual activity [38] of 67.5%. It also gave a residual activity [39] of 67.8%, a residual activity [40] of 100% and an inhibition [41] of 50%. The inhibition [42] was 6.06%, the inhibition [43] was -7.63% and the inhibition [44] was 20.2%. For the same compound, the inhibition [45] was -4.65%.
